Values quoted from earlier work, collected in US20150024042A1 (POZEN INC., priority 2011, published 2015).

Tests used:
[1] = 95% CI 0.84 to 0.98
[2] = repeated oral doses of 75 mg clopidogrel (base)
[3] = in vivo

In the case of `COC(=O)[C@H](c1ccccc1Cl)N1CCc2sccc2C1` [clopidogrel], the “cardiovascular events compared with aspirin, OR” value [1] is given as 0.91, the “time of peak plasma levels of the main circulating metabolite after dosing” value [2] is given as “approximately one” and the “gastrointestinal hemorrhage, incidence” value [3] is given as 2.0 % annually.
